test: in vitro; settings: human, hela cells, % viability

SMILES | viability at 28.5 h, 10 µM
O=C(NCCc1ccccc1Cl)C1(Cc2ccc(-c3cccnc3)cc2)CCOCC1 [CBK285590] | 95.5%
CN(C)C(=O)c1cn2cc(-c3cccs3)n(CC3CC3)c(=O)c2n1 [CBK307440] | 91.4%
COc1cccc(CC(=O)N2CCOc3ncccc32)c1 [CBK305235] | 98.4%
Cc1nc2ccccn2c1CN1CCC(N2CCCC2)CC1 [CBK281730] | 108%
CC(C)[C@@H](CO)Nc1cncc(-c2cccnc2)n1 [CBK065467] | 98.5%
CC(C)CN(Cc1cccs1)C(=O)c1cc2n(n1)CCCN(C)C2 [CBK306793] | 102%
COC(=O)c1cccc(N(C)S(=O)(=O)c2sc3ccc(Cl)cc3c2C)c1 [CBK160390] | 94.1%
O=C(CCn1cccn1)N1Cc2ccccc2CC1C1CCOCC1 (centres unmarked) [CBK282262] | 83.8%
Cc1nc2ncccn2c1-c1csc(Nc2ccc(S(N)(=O)=O)cc2)n1 [CBK263294B] | 84.8%
CC(OC(=O)c1ccc(O)cc1)C(=O)Nc1ccc(Cl)c(Cl)c1 (centres unmarked) [CBK264281] | 96.4%
COCC(=O)N[C@H]1CCN2C(=O)c3cc(-c4ccc(F)cc4F)ccc3NC(=O)[C@@H]2C1 [CBK289561] | 78.6%
CCC(CN1CCCC1)NC(=O)Cc1cc(C)ccc1OC (centres unmarked) [CBK282759] | 83.2%
CC[C@H]1CN(C(=O)c2cccnc2)CC[C@H]1CC(=O)NCc1ccc2c(c1)OCO2 [CBK288771] | 87.7%
Cn1cc(CC2CCN(Cc3ccc(Oc4cnccn4)cc3)C2)cn1 (centres unmarked) [CBK304188] | 108%
CC(C)(C)NCC(O)COc1c(F)cc(Br)cc1F (centres unmarked) [CBK020879C] | 107%
CS(=O)(=O)N1CC2(CCN(Cc3ccc([N+](=O)[O-])cc3)CC2)c2ccccc21 [CBK084010] | 104%
O=C1OCCN1S(=O)(=O)c1ccc(CN2CCCN(Cc3ccc(S(=O)(=O)N4CCOC4=O)cc3)CC2)cc1 [CBK024728] | 87.1%
OCCCN1CCCN(c2ccnc(OCCN3CCOCC3)n2)CC1 [CBK083808] | 104%
O=C(CCc1cccnc1)Nc1cnc(-c2cccc(OC(F)(F)F)c2)c(-c2cccnc2)n1 [CBK036811] | 94.5%
Cn1cc(CCC(=O)NC(Cc2ccncc2)[C@H]2C[C@H](O)C2)cn1 (some centres unmarked) [CBK307292] | 82.4%
CC(C)c1nnc(SCc2ccc(CSc3nnc(C(C)C)n3N)cc2)n1N [CBK267911] | 101%
CCOc1n[s+]([O-])nc1Nc1cc(Cl)cc(Cl)c1 (centres unmarked) [CBK007897] | 101%

SMILES | viability at 28.5 h, 10 µM
Cn1ccnc1C1(O)CC2CCC(C1)N2C(=O)c1ccco1 (centres unmarked) [CBK284179] | 81.7%
Cc1cc(C)c2c(c1)cc(C)c1nn(CC(=O)NC3CC3)c(=O)n12 [CBK283877] | 83.5%
O=C(OCc1ccccc1)N1CCC(C2OCc3cc(-c4ccc(C(=O)N5CCCCC5)cc4)ccc3O2)CC1 (centres unmarked) [CBK153262] | 93.8%
CN(C)CCN1C(=O)C(O)=C(C(=O)c2ccco2)C1c1ccc([N+](=O)[O-])cc1 (centres unmarked) [CBK264486] | 109%
COC(=O)C1CCCN1C(=O)C1(Oc2ccc(C)cc2)CCNCC1 (centres unmarked) [CBK306655] | 96.5%
COc1cccc2cc(-c3cncn3CCCC(C)(C)CO)oc12 [CBK281817] | 112%
COc1ccccc1NC(=O)N1C[C@@H]2C[C@H](C1)c1ccc(-c3cncnc3)c(=O)n1C2 [CBK289186] | 114%
c1csc(CCN2CCC3(CC2)OCCc2c3[nH]c3ccccc23)c1 [CBK040156] | 87.1%
Cc1cc(C)n(C(C)CNC(=O)C(C)Cn2cccn2)n1 (centres unmarked) [CBK281639] | 87.6%
Cc1ccc(CN(CCCn2ccnc2)Cc2ccccc2O)o1 [CBK283189] | 99.8%
Cn1ccc(C(=O)N2CCC[C@H](C(=O)c3ccc(F)cc3)C2)n1 [CBK284333] | 88.3%
COc1cccc(OCC(O)CN(C)S(=O)(=O)O)c1 (centres unmarked) [CBK027121N] | 89.9%
CC1(C)CC(=O)C2=C(C1)CC1(C)CC(C)(C)CC2(Nc2ccccn2)C1 (centres unmarked) [CBK022425] | 121%
Cc1csc(Nc2cccc(C3CCCN3C(=O)CCOc3ccccc3C)n2)n1 (centres unmarked) [CBK285977] | 101%
Cc1nc2sccn2c1CN(CCCN(C)C)Cc1ccco1 [CBK283199] | 92.5%
Nc1nonc1-c1nc2ccccc2n1Cc1ccc(-c2nn[nH]n2)cc1 [CBK267648] | 91.3%
COc1ccc(N(CC(=O)Nc2c(F)cccc2F)S(=O)(=O)c2ccccc2)cc1 [CBK266883] | 95.2%
OCCn1ncc2c(NCc3nncn3-c3ccccc3)ncnc21 [CBK304608] | 98.5%
Cc1ccc(C(=O)CC(C(=O)O)P(=O)(c2ccccc2)c2ccccc2)cc1 (centres unmarked) [CBK265022] | 90.1%
COc1cc(C)c(Nc2cc(-c3cccnc3)ncn2)cc1OC [CBK037754] | 102%
O=C(OCCC1SC(NC2CC3C=CC2C3)=NC1=O)c1c(F)cccc1F (centres unmarked) [CBK200057T] | 89.7%
O=C(NC(NC(=O)c1ccccc1F)c1ccc2c(c1)OCO2)c1ccccc1F [CBK265742] | 106%

SMILES | viability at 28.5 h, 10 µM
Cc1cc(NS(=O)(=O)c2cccc(Cl)c2C)on1 [CBK022499] | 92%
CC(CN1CCCCC1)OC(=O)COc1ccc(F)cc1 (centres unmarked) [CBK058066C] | 93.6%
Cc1nccn1CC1(O)CCN(Cc2ccccc2F)CC1 [CBK284961] | 105%
COc1ccc(-c2ccc3n(c2=O)C[C@H]2C[C@@H]3CN(C(=O)c3ccncc3)C2)cc1 [CBK289178] | 90.8%
COc1cccc2c3c([nH]c12)C1(CCN(CCc2scnc2C)CC1)NCC3 [CBK040058] | 89%
N=C(Nc1nc(CSc2nnc(N)s2)cc(=O)[nH]1)Nc1ccc(Cl)cc1Cl [CBK268890] | 85.5%
O=C(NCCc1ccc(Cl)cc1)C1CCN(C(=O)c2ccc3nsnc3c2)C1 (centres unmarked) [CBK285553] | 95.2%
CCOC(=O)c1ccc(N2C(=O)CC(N3CCCc4ccccc43)C2=O)cc1 (centres unmarked) [CBK268720] | 109%
Cc1ccc(Oc2c([N+](=O)[O-])ncn2C)c(Br)c1 [CBK002819] | 99.2%
Cc1nnc(SCCn2c(N3CC(C)CC(C)C3)nc3c2c(=O)n(C)c(=O)n3C)s1 (centres unmarked) [CBK269419] | 100%
CCCn1cc(CN2CC3C[C@@H](O)CN3C[C@@H]2C)c2ccccc21 (some centres unmarked) [CBK285466] | 104%
O=C(NCCN1CCCCC1)C1CC(=O)N(c2ccccc2F)C1 (centres unmarked) [CBK305148] | 86.8%
O=C(c1ccco1)N1CCN(c2ncnc3scc(-c4cccs4)c23)CC1 [CBK267208] | 110%
OCCN1CCN(c2cc(N3CCN(c4ccccn4)CC3)n3nccc3n2)CC1 [CBK037129] | 100%
CCOC(=O)CN1C(=O)S/C(=C/c2cc(C)n(-c3ccc(S(N)(=O)=O)cc3)c2C)C1=O [CBK265410] | 94%
Nc1nnc(SCC(=O)NC23CC4CC(CC(C4)C2)C3)s1 [CBK267417] | 97.1%
Cc1ccc(S(=O)(=O)c2ccc(C)c(S(=O)(=O)NC3CCCCC3)c2)cc1S(=O)(=O)NC1CCCCC1 [CBK261653] | 90%
CCCS(=O)(=O)N1CCN(C(=O)COc2ccc3ccccc3c2)CC1 [CBK264290] | 95.4%
CN1CCCN(c2cncc(-c3cc4ccccc4o3)n2)CC1 [CBK065997] | 93%
COc1cc(CN2CCN(c3cc(C)ccc3C)CC2)ccc1OCc1ccccc1 [CBK261898] | 86.6%
COCc1cn([C@H]2CO[C@H]3[C@@H]2OC[C@@H]3NC(=O)Nc2ccc(OC)cc2)nn1 [CBK289495] | 107%
CCCCC1C(=O)N(C)CCN1C(=O)c1cc(C)c(CC)n(C)c1=O (centres unmarked) [CBK306527] | 91.2%

SMILES | viability at 28.5 h, 10 µM
CCCC(C(=O)NCCN(C)C1CCCCC1)n1nc(C)cc1C (centres unmarked) [CBK282039] | 96.4%
COc1cccc(CN2CC[C@H]3[C@@H](C2)[C@H](c2ccsc2)CN3C(=O)c2ccccc2)c1 [CBK285616] | 97.5%
Cc1cc(C)nc(N/C(=N\C(=O)c2ccccc2)N2CCC(C(N)=O)CC2)n1 [CBK263910] | 99.4%
Cc1onc(-c2ccc(Cl)cc2)c1C(=O)N1CCN(C2CCN(C)CC2)CC1 [CBK149087] | 97.1%
O=C(c1ccc(-c2cncc(-c3cc4ccccc4[nH]3)c2)cc1)N1CCOCC1 [CBK158419T] | 76.1%
Cc1cc(S(=O)(=O)N(CCC#N)c2ccccc2)c(C)cc1Cl [CBK043618] | 85.7%
O=C(Nc1cccnc1)C1CCN(S(=O)(=O)c2ccc(Oc3ccccc3)cc2)CC1 [CBK269621] | 81.8%
CC[C@@H]1CCCCN1C(=O)c1sc2nc(C(C)=O)ccc2c1Cl [CBK091036] | 88.1%
C=C(C)CN1CCN(Cc2cnn(C3CCCCC3)c2)CC1 [CBK282828] | 98.9%
O=C(CCN1Cc2ccccc2C1=O)NCCN1CCc2ccccc21 [CBK282632] | 97.5%
O=C(Nc1cc2ccccc2c(Br)n1)c1ccc(C(F)(F)F)cc1[N+](=O)[O-] [CBK063299] | 92.5%
c1ccc2cc(OCc3ccc(-c4nccnc4-c4nnn[nH]4)cc3)ccc2c1 [CBK050818] | 93.9%
C=CCn1c(Cc2csc(NC(=O)c3ccc(C(C)=O)s3)n2)n[nH]c1=S [CBK295299] | 77%
Cn1ncc2c1CCCN(C(=O)CCCOc1ccccc1F)C2 [CBK285278] | 85%
Cc1nc2ccc(NC(=O)Nc3ccnc4cccnc34)cc2o1 [CBK085498] | 90%
Cc1ccc(CN(CCCn2ccnc2)Cc2nc3ccccc3[nH]2)o1 [CBK283103] | 90.9%
Cn1c(SCC(=O)Nc2ccc(N3CCOCC3)c(Cl)c2)nnc1-c1ccc(N)cc1 [CBK265777] | 102%
CC(=O)Nc1cccc(NC(=O)N(CCC#N)C2CCCCC2)c1 [CBK156367] | 91.9%
CCN(CC)c1ccc(C(=O)CN2CCC(Oc3nccnc3OCc3cccnc3)CC2)cc1 [CBK083167T] | 112%
CCOC(=O)c1cnn2c(O)cc(CN3CCCc4ccccc43)nc12 [CBK305694] | 118%
